According to patent US20100278907A1, “Immunogenic Compositions Containing Ceramide and Methods of Use Thereof” (Medical College of Georgia Research Institute, Inc, priority 2008, published 2010):
Where two headings read alike, the source gives them in different places.

Experiments:
[1] = cited from earlier work
[2] = system: Aβ biogenesis; details: cited from earlier work
[3] = acid-induced acute lung injury; cited from earlier work
[4] = LPS model; cited from earlier work
[5] = system: ceramide levels in F11 cells; assay: Immunocytochemistry for ceramide in treated F11 cells; format: cell-based
Description: (§1) For immunocytochemistry, F11 cells were grown on coverslips. Cells were incubated with myriocin for 3 days to inhibit de novo ceramide biosynthesis and reduce ceramide levels. To determine whether the antibody would cross-react with glycosphingolipids in the membrane, cells were incubated for 4 days with […] N-butyl-deoxynojirimycin (NB-dNJ), a glucosylceramide (GlcCer) synthase inhibitor known to inhibit glycosphingolipid biosynthesis. Control and myriocin- or NB-dNJ-treated cells were fixed with 4% p-formaldehyde in PBS for 20 min at room temperature. To release endogenous ceramide from sphingomyelin, fixed cells were incubated for 1 hour at 37° C. with 0.3 units (1 U/ml) of Staphylococcus aureus sphingomyelinase. Immunocytochemistry for ceramide was performed without the use of detergent for permeabilization. […] Confocal fluorescence microscopy was performed using a Zeiss LSM510 confocal laser scanning microscope equipped with a two photon argon laser at 488 nm (Cy2), 543 inn (Cy3), or 633 nm (Alexa Fluor: 647). […] Cells were washed with PBS, and stained cells were analyzed by flow cytometry, measuring the fluorescence emission at 530 nm. […]

[6] = system: TNF-α effect on endothelium-dependent vasorelaxation; details: cited from earlier work
[7] = repeated lung lavage; given together with surfactant; cited from earlier work
[8] = system: ceramide levels in F11 cells; assay: Ceramide levels by high-performance thin-layer chromatography; format: cell-based; details: myriocin incubation of F11 cells for 3 days; HPTLC
[9] = system: ceramide levels in F11 cells; assay: Flow cytometry of F11 cells stained with anti-ceramide rabbit IgG; format: cell-based; details: F11 cells incubated with myriocin, stained with rabbit IgG fraction; FIG. 2
Description: as §1

Question: For CCCCCCCCCCCCC/C=C/[C@@H](O)[C@H](CO)NC(C)=O [C2-ceramide, N-acetyl sphingosine], which ischaemic preconditioning-like protection ([1]; cell-permeable C2-ceramide compared with TNF-α preconditioning) is on record?
Answer: TNF-a protection is reproduced

Question: With CCCCCCCCCCCCC/C=C/[C@@H](O)[C@H](CO)NC(=O)CCCCC [C6 ceramide, N-hexanoylsphingosine] as the compound, how does the Aβ generation ([2]; FB1 treated cells) read?
Answer: restored

Question: What about the “biogenesis of Aβ” value ([2]; exogenous C6 ceramide) of the same compound?
Answer: promoted

Question: Which “protection from ischaemia-induced cell death” value ([1]; administered before the ischaemic period) does the source give for S=C(S)OC1CC2CC1C1CCCC21 (stereo not shown) [D609, tricyclodecan-9-yl-xanthate] here?
Answer: reproduces preconditioning protection

Question: And the oxygenation [3]?
Answer: improves

Question: What about the pulmonary edema [3] of the same compound?
Answer: attenuates

Question: And the mortality [4]?
Answer: attenuated

Question: What about the pulmonary edema formation [4] of the same compound?
Answer: attenuated

Question: For CCCCCCCC/C=C\CCCCCCCC(=O)NCCO [N-oleoylethanolamine], which “effect on preconditioning-like protection provided by TNF-a or C2-ceramide” value ([1]; ceramidase inhibitor) is on record?
Answer: hinders

Question: What about the “effect on protection induced by ischaemic preconditioning” value ([1]; ceramidase inhibitor) of the same compound?
Answer: does not hinder

Question: For CCCCN1C[C@H](O)[C@@H](O)[C@H](O)[C@H]1CO [NB-dNJ, N-butyl-deoxynojirimycin], which “intensity of the ceramide immunostaining signal” value ([5]; F11 cells incubated for 4 days with 250 mM NB-dNJ) is on record?
Answer: not changed significantly

Question: For CNCCCN1c2ccccc2CCc2ccccc21 [desipramine], which “effect on TNF-α inhibition of endothelium-dependent vasorelaxation” value [6] is on record?
Answer: neutralizes

Question: With CN(C)CCCN1c2ccccc2CCc2ccccc21 [imipramine] as the compound, how does the “duration of the beneficial effect” value [7] read?
Answer: 24 h

Question: And the edema formation [7]?
Answer: ameliorates

Question: What about the oxygenation [7] of the same compound?
Answer: advances

Question: And the pulmonary inflammation [4]?
Answer: attenuated

Question: Which “reduction of ceramide levels” value [8] does the source give for CCCCCCC(=O)CCCCCC/C=C/C[C@@H](O)[C@H](O)[C@@](N)(CO)C(=O)O [myriocin] here?
Answer: about 50%

Question: What about the “intensity of the ceramide immunostaining signal” value ([5]; F11 cells incubated with myriocin for 3 days, rabbit IgG and polyclonal IgM) of the same compound?
Answer: reduced

Question: What about the “reduction of fluorescence intensity compared with control cells” value [9] of the same compound?
Answer: about 40%
